Drawing on patent US9029531B2 (Agios Pharmaceuticals, Inc., priority 2012, dated 2015), this text covers IC50 for 31 compounds.

Bounds are passed on as bounds.

The target in the assay is T1, glutaminase (GAC) (Homo sapiens, UniProt O94925).
T1 sequence (O94925 55-598 isoform O94925-3 limits assumed): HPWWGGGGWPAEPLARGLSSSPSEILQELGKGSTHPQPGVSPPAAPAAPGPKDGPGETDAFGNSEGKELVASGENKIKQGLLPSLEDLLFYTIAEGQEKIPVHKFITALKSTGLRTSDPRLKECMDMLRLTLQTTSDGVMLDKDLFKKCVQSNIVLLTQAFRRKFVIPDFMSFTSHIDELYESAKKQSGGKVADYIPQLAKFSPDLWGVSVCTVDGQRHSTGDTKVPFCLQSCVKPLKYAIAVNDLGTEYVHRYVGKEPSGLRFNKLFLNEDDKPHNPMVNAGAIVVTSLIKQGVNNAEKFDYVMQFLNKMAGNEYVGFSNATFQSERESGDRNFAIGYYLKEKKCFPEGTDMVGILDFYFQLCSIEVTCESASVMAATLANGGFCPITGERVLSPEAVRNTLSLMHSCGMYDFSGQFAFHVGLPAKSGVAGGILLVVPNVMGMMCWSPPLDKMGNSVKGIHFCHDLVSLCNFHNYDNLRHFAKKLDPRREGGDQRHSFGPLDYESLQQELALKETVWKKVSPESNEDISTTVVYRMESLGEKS
Put plainly: Glutaminase coupled endpoint enzymatic assay (Example A). Format: biochemical. To be noted: inhibition of glutaminase; assay of Example A or Example B. The text has this:
In certain embodiments, exemplary compounds of Formula I include the compounds described in Table 1 and in the Examples. A compound described herein may be tested for its ability to inhibit glutaminase, e.g., by an assay as described in the Examples. For simplicity, the inhibition activity of these compounds is represented as an IC50 tested in an assay of Example A or Example B in Table 1. […] “N/A” refers to compounds wherein the IC50 is unavailable.
In this example, the enzymatic activity of glutaminase is measured through a coupled endpoint assay. Glutamine and phosphate are supplied to GAC at a concentration equal to Km and AC50, respectively, and GAC concentration is adjusted to give a linear reaction for 60 minutes. The glutamate produced is converted to 2-OG by a kinetic excess of glutamate dehydrogenase. This second step is configured for 2×Km for NAD, since excess NAD is inhibitory. However, a kinetic excess of the third coupling enzyme, diaphorase, recycles NAD from NADH to keep the NAD concentration constant during the timecourse of the assay. Diaphorase, also supplied in kinetic excess, oxidizes NADH produced by GDH back to NAD with the concomitant reduction of rezasurin to the highly fluorescent resorufin. Resorufin in measured after the assay is stopped with SDS by Ex544/Em590. A reduction in the signal indicates inhibition of some component of the coupled enzyme system. Prospective hits are counterscreened against GDH/diaphorase alone to remove hits to the coupling enzyme system in a second assay.
2. Buffers • 2× Buffer (300 mM NaCl, 100 mM HEPES pH 8.5, 0.1% BSA, 0.5 mM EDTA, 100 mM sodium phosphate pH 8.5) • 5× Substrate Mix (1× Buffer final concentration, with 13 mM glutamine, 100 μM resazurin, 50 μg/ml diaphorase) • 1.2× Enzyme Mix (1× Buffer final concentration, with 0.875 μg/ml GAC, 1.56 mM NAD, 6.25 units/ml GDH) • Stop Mix (6% SDS in ddH2O) Reaction Procedure • 1. Add 1 μl compound in 100% DMSO • 2. Add 40 μl of Enzyme Mix and incubate for 60 minute at room temperature • 3. Add 10 μl of Substrate Mix to start reaction • 4. Stop reaction with 25 μl of 6% SDS and read Ex544 Em 590
As a reminder, the IC50 is the concentration that inhibits the measured activity by half. Consider `CC(=O)Nc1nnc([C@@H]2CCC[C@@H](c3nnc(NC(=O)Cc4cn(C)c5ccccc45)s3)C2)s1` [Compound 13], for which the IC50 lay in the range of 100 to 500 nM.

Take `Cn1cc(CC(=O)Nc2nnc([C@@H]3CCC[C@H](c4nnc(NC(=O)Cc5cn(C)c6ccccc56)s4)C3)s2)c2ccccc21` [Compound 15, N,N′-(5,5′-((1R,3S)-cyclohexane-1,3-diyl)bis(1,3,4-thiadiazole-5,2-diyl))bis(2-(1-methyl-1H-indol-3-yl)acetamide)]: the IC50 lay in the range of 500 to 1000 nM.

`Cn1cc(CC(=O)Nc2nnc([C@H]3CCC[C@H](c4nnc(NC(=O)Cc5cn(C)c6ccccc56)s4)C3)s2)c2ccccc21` [Compound 16, N,N′-(5,5′-((1S,3S)-cyclohexane-1,3-diyl)bis(1,3,4-thiadiazole-5,2-diyl))bis(2-(1-methyl-1H-indol-3-yl)acetamide)] showed an IC50 of 100 to 500 nM.

The compound `O=C(Cc1ccccc1)Nc1nnc([C@@H]2CC[C@H](c3nnc(NC(=O)Cc4ccccc4)s3)C2)s1` [Compound 18, N,N′-(5,5′-((1R,3S)-cyclopentane-1,3-diyl)bis(1,3,4-thiadiazole-5,2-diyl))bis(2-phenylacetamide)] yielded an IC50 of 1000 to 2000 nM.

`O=C(Cc1ccccc1)Nc1nnc([C@@H]2CC[C@@H](c3nnc(NC(=O)Cc4ccccc4)s3)C2)s1` [Compound 19, N,N′-(5,5′-((1R,3R)-cyclopentane-1,3-diyl)bis(1,3,4-thiadiazole-5,2-diyl))bis(2-phenylacetamide)] displayed an IC50 of 100 to 500 nM.

In the case of `O=C(Cc1ccccn1)Nc1nnc([C@@H]2CCC[C@H](c3nnc(NC(=O)Cc4ccccn4)s3)C2)s1` [Compound 20, N,N′-(5,5′-((1R,3S)-cyclohexane-1,3-diyl)bis(1,3,4-thiadiazole-5,2-diyl))bis(2-(pyridin-2-yl)acetamide)], the IC50 was in the range of 1000 to 2000 nM.

`O=C(Cc1c[nH]c2ccccc12)Nc1nnc([C@H]2CCC[C@H](c3nnc(NC(=O)Cc4c[nH]c5ccccc45)s3)C2)s1` [Compound 22] showed an IC50 of less than 100 nM.

For `O=C(Cc1c[nH]c2ccccc12)Nc1nnc([C@@H]2CCC[C@H](c3nnc(NC(=O)Cc4c[nH]c5ccccc45)s3)C2)s1` [Compound 23, N,N′-(5,5′-((1S,3R)-cyclohexane-1,3-diyl)bis(1,3,4-thiadiazole-5,2-diyl))bis(2-(1H-indol-3-yl)acetamide)], the IC50 lay within 100 to 500 nM.

The compound `O=C(Cc1cccc2[nH]ccc12)Nc1nnc([C@H]2CCC[C@H](c3nnc(NC(=O)Cc4cccc5[nH]ccc45)s3)C2)s1` [Compound 24, N,N′-(5,5′-((1S,3S)-cyclohexane-1,3-diyl)Obis(1,3,4-thiadiazole-5,2-diyl))bis(2-(1H-indol-4-yl)acetamide)] displayed an IC50 of less than 100 nM.

The compound `O=C(Cc1cccc2[nH]ccc12)Nc1nnc([C@@H]2CCC[C@H](c3nnc(NC(=O)Cc4cccc5[nH]ccc45)s3)C2)s1` [Compound 25, N,N′-(5,5′-((1S,3R)-cyclohexane-1,3-diyl)bis(1,3,4-thiadiazole-5,2-diyl))bis(2-(1H-indol-4-yl)acetamide)] displayed an IC50 of 500 to 1000 nM.

Take `CC(=O)Nc1nnc([C@@H]2CCC[C@@H](c3nnc(NC(=O)Cc4ccccn4)s3)C2)s1` [Compound 26]: the half-inhibitory concentration (IC50) was in the range of 100 to 500 nM.

Take `O=C(Cc1ccccn1)Nc1nnc([C@@H]2CC[C@H](c3nnc(NC(=O)Cc4ccccn4)s3)C2)s1` [Compound 32]: the IC50 is 500 to 1000 nM.

Turning to `O=C(Cc1ccccn1)Nc1nnc([C@@H]2CC[C@@H](c3nnc(NC(=O)Cc4ccccn4)s3)C2)s1` [Compound 33], the IC50 is less than 100 nM.

On to `O=C(Cc1ccccc1)Nc1nnc(C2CCCC(c3nnc(NC(=O)Cc4ccccc4)s3)C2)s1` (stereo not shown) [Compound 36], for which the IC50 is 1000 to 2000 nM.

Regarding `CC(C)C(=O)Nc1nnc([C@@H]2CCC[C@@H](c3nnc(NC(=O)C(C)C)s3)C2)s1` [Compound 38], the IC50 lay in the range of 100 to 500 nM.

Regarding `Nc1ccccc1CC(=O)Nc1nnc([C@H]2CCC[C@H](c3nnc(NC(=O)Cc4ccccc4N)s3)C2)s1` [Compound 56, N,N′-(5,5′-((1S,3S)-cyclohexane-1,3-diyl)bis(1,3,4-thiadiazole-5,2-diyl))bis(2-(2-aminophenyl)acetamide)], the IC50 was less than 100 nM.

Consider `O=C(Cc1ccccc1[N+](=O)[O-])Nc1nnc([C@H]2CCC[C@H](c3nnc(NC(=O)Cc4ccccc4[N+](=O)[O-])s3)C2)s1` [Compound 57, N,N′-(5,5′-((1S,3S)-cyclohexane-1,3-diyl)bis(1,3,4-thiadiazole-5,2-diyl))bis(2-(2-nitrophenyl)acetamide)], for which the IC50 lay within 100 to 500 nM.

For the compound `Nc1nnc([C@@H]2CCC[C@@H](c3nnc(NC(=O)Cc4ccccn4)s3)C2)s1` [Compound 58], the IC50 fell in the range of 1000 to 2000 nM.

Regarding `O=C(Cc1cccs1)Nc1nnc([C@H]2CCC[C@H](c3nnc(NC(=O)Cc4cccs4)s3)C2)s1` [Compound 59, N,N′-(5,5′-((1S,3S)-cyclohexane-1,3-diyl)bis(1,3,4-thiadiazole-5,2-diyl))bis(2-(thiophen-2-yl)acetamide)], the IC50 is less than 100 nM.

`CSCC(=O)Nc1nnc([C@H]2CCC[C@H](c3nnc(NC(=O)CSC)s3)C2)s1` [Compound 60, N,N′-(5,5′-((1S,3S)-cyclohexane-1,3-diyl)bis(1,3,4-thiadiazole-5,2-diyl))bis(2-(methylthio)acetamide)] returned an IC50 of 500 to 1000 nM.

In the case of `COc1ccccc1CC(=O)Nc1nnc(C2CCC(c3nnc(NC(=O)Cc4ccccc4OC)s3)C2)s1` (stereo not shown) [Compound 67], the IC50 lay in the range of 100 to 500 nM.

`COc1cccc(CC(=O)Nc2nnc(C3CCC(c4nnc(NC(=O)Cc5cccc(OC)c5)s4)C3)s2)c1` (stereo not shown) [Compound 68] came in with an IC50 of 100 to 500 nM.

`COc1ccccc1CC(=O)Nc1nnc([C@H]2CCC[C@H](c3nnc(NC(=O)Cc4ccccn4)s3)C2)s1` [Compound 79, 2-(2-methoxyphenyl)-N-(5-((1S,3S)-3-(5-(2-(pyridin-2-yl)acetamido)-1,3,4-thiadiazol-2-yl)cyclohexyl)-1,3,4-thiadiazol-2-yl)acetamide] returned an IC50 of less than 100 nM.

In the case of `COc1cccc(CC(=O)Nc2nnc([C@H]3CCC[C@H](c4nnc(NC(=O)Cc5ccccn5)s4)C3)s2)c1` [Compound 81, 2-(3-methoxyphenyl)-N-(5-((1S,3S)-3-(5-(2-(pyridin-2-yl)acetamido)-1,3,4-thiadiazol-2-yl)cyclohexyl)-1,3,4-thiadiazol-2-yl)acetamide], the half-inhibitory concentration (IC50) is less than 100 nM.

In the case of `COc1cccc(CC(=O)Nc2nnc([C@H]3CCC[C@H](c4nnc(NC(C)=O)s4)C3)s2)c1` [Compound 90, N-(5-((1S,3S)-3-(5-acetamido-1,3,4-thiadiazol-2-yl)cyclohexyl)-1,3,4-thiadiazol-2-yl)-2-(3-methoxyphenyl)acetamide], the IC50 is 100 to 500 nM.

The compound `CC(=O)Nc1nnc([C@H]2CCC[C@H](c3nnc(NC(=O)Cc4ccccn4)s3)C2)s1` [Compound 93, N-(5-((1S,3S)-3-(5-acetamido-1,3,4-thiadiazol-2-yl)cyclohexyl)-1,3,4-thiadiazol-2-yl)-2-(pyridin-2-yl)acetamide] registered an IC50 of less than 100 nM.

As to `COc1ccccc1CC(=O)Nc1nnc([C@H]2CCC[C@H](c3nnc(NC(C)=O)s3)C2)s1` [Compound 94, N-(5-((1S,3S)-3-(5-acetamido-1,3,4-thiadiazol-2-yl)cyclohexyl)-1,3,4-thiadiazol-2-yl)-2-(2-methoxyphenyl)acetamide], the IC50 is less than 100 nM.

Compound `N#Cc1ccccc1CC(=O)Nc1nnc(C2CCC(c3nnc(NC(=O)Cc4ccccc4C#N)s3)C2)s1` (stereo not shown) [Compound 95] came in with an IC50 of 100 to 500 nM.

`N#Cc1ccc(CC(=O)Nc2nnc(C3CCC(c4nnc(NC(=O)Cc5ccc(C#N)cc5)s4)C3)s2)cc1` (stereo not shown) [Compound 96] showed an IC50 of 100 to 500 nM.

In turn, `N#Cc1cccc(CC(=O)Nc2nnc(C3CCC(c4nnc(NC(=O)Cc5cccc(C#N)c5)s4)C3)s2)c1` (stereo not shown) [Compound 97] came in with an IC50 of 100 to 500 nM.

Turning to `O=C(Cc1ccccn1)Nc1nnc([C@@H]2CCC[C@H](c3nnc(NC(=O)Cc4ccccn4)s3)C2)s1` [Compound 102], the IC50 was in the range of 100 to 500 nM.
